Results as given in patent US20240027453A1, “METHOD FOR DETECTION AND QUANTITATIVE MONITORING OF INFECTIONS WITH HERPESVIRUSES” (The Trustees of Princeton University, priority 2020, published 2024).
Where two headings read alike, the source gives them in different places.

Test system: HCMV
Format: cell-based
Details: DE
Procedure: In example herpesvirus PRM assay methods shown herein, cell pellets were lysed in 2% SDS, 100 mM NaCl, 0.5 mM EDTA, 50 mM Tris, pH 8.2, and 50 μg of protein was reduced and alkylated with 25 mM TCEP and 50 mM CAM respectively for 20 min at 70° C. Proteins were then precipitated via methanol chloroform precipitation (Wessel & Flugg, Anal Biochem. 138(1):141-143, 1984), resuspended in 50 mM HEPES, pH 8.2 and digested overnight with trypsin (50:1 protein:enzyme w/w ratio). Digested peptides were desalted by SDB-RPS StageTip as previously described (Lum et al., Cell Syst., 7(6):[…], 2018; Greco et al., Methods Mol Biol 1410:39-63, 2016; Federspiel & Cristea, Methods Mol Biol., 1977:115-143, 2019).
Peptides (1.0 μg on column) were analyzed by LC-MS/MS using a Dionex Ultimate 3000 UHPLC coupled online to an EASYSpray ion source and a Q Exactive HF. Peptides were separated on an EASYSpray C18 column (75 μm×25 cm) heated to 50° C. using a linear gradient of 5% B to 32% B over 60 min at a flow rate of 250 nL/min and were ionized at 1.7 kv. Mobile phase A consisted of 0.1% FA in H2O and mobile phase B consisted of 0.1% FA, 2.9% H2O in ACN.
The PRM method was controlled by a peptide inclusion list with retention time windows of 6 min for selected precursor ions.
The PRM assay was developed and analyzed using the open-source software Skyline (Maclean et al., Bioinformatics 26(7):966-968, 2010). Summed area under the curve of 3-4 transitions per peptide was used for quantitation. Targeted peptides were normalized to host protein loading control peptides. Peptide values for each sample were scaled to the average of each peptide across all runs. The average of multiple peptides was used as the inferred value for the protein measurement when more than one peptide was quantified (Federspiel et al., PLoS Biol. 17(9):e3000437. Doi: 10.1371/journal.pbio.3000437). PRM quantitation data were graphed using the Python Seaborn and Matplotlib libraries.
MRC5 primary human fibroblasts (HFs) (ATCC CCL-171) were used as the model system for HSV-1 and HCMV infections and were cultured in complete growth medium (DMEM supplemented with 10% fetal bovine serum and 1% penicillin-streptomycin antibiotics) at 37° C. and 5% CO2. iSLK.219 cells harboring latent KSHV (a gift from Dr. Britt Glaunsinger, University of California, Berkeley) were grown in complete growth medium supplemented with 500 μg/ml hygromycin (ThermoFisher Scientific, 10687010) at 37° C. and 5% CO2. All cells were used for experiments within a maximum of 10 passages.
Wild type HSV-1 strain 17+ (a gift from Beate Sodeik, Hannover Medical School, Hannover, Germany) was propagated as previously described (Diner et al., 2015). Briefly, PO stocks were generated by electroporating pBAC-HSV-1 into U-2 OS cells. […] In a similar manner, wild type HCMV strain AD169 was produced from BAC electroporation into HFs and working stocks were propagated by infecting HFs at a low level. In both cases, cell-associated virus was released by sonication, combined with supernatant virus, then concentrated by ultracentrifugation (20,000 rpm, 2 hours, 4° C. with SW28 swinging bucket rotor [Beckman Coulter]) over a 10% ficoll (HSV-1) or 20% sorbitol (HCMV) cushion. Virus stock titers were determined by plaque assay for HSV-1 or tissue culture infectious dose (TCID50) for HCMV and infections were performed at a multiplicity of infection (MOI) of 3.
12 hours prior to virus infection or reactivation, cells were treated with either the small molecule drug or DMSO/PBS control at an equivalent volume. […] For infection cycles lasting longer than 24 hours, small molecule drugs were re-added to the cell culture medium every 24 hours. Upon collection, cells were rinsed with PBS, scraped into a microcentrifuge tube, pelleted by centrifugation, and rinsed again with PBS.

## Nc1ccn(C[C@@H](CO)OCP(=O)(O)O)c(=O)n1 [CDV, cidofovir]
Timepoint 72
  UL119/UL118 (P16739) protein, numerical value of heatmap FIG. 6C: 0.9178
  UL128 (P16837) protein, numerical value of heatmap FIG. 6C: 0.3157
  US8 (P09730) protein, numerical value of heatmap FIG. 6C: 1.064
  US9 (P09729) protein, numerical value of heatmap FIG. 6C: 1.073
  US12 (P09721) protein, numerical value of heatmap FIG. 6C: 1.061
  US13 (P09720) protein, numerical value of heatmap FIG. 6C: 1.062
  US14 (P09719) protein, numerical value of heatmap FIG. 6C: 0.8113
  US18 (P69334) protein, numerical value of heatmap FIG. 6C: 1.076
  US22 (P09722) protein, numerical value of heatmap FIG. 6C: 0.7585
  US23 (P09701) protein, numerical value of heatmap FIG. 6C: 0.7114
  US24 (P09700) protein, numerical value of heatmap FIG. 6C: 0.6653
  gB (P06473) protein, numerical value of heatmap FIG. 6C: 0.7243
  sp|P09710|IR01_HCMVA (P09710) protein, numerical value of heatmap FIG. 6C: 0.4528
Timepoint 96
  CVC2 (P16726) protein, numerical value of heatmap FIG. 6C: 0.8812
  DBP (P17147) protein, numerical value of heatmap FIG. 6C: 1.215
  HELI (P16736) protein, numerical value of heatmap FIG. 6C: 0.6134
  NEC1 (P16794) protein, numerical value of heatmap FIG. 6C: 0.6641
  NEC2 (P16791) protein, numerical value of heatmap FIG. 6C: 0.9731
  RIR1 (P16782) protein, numerical value of heatmap FIG. 6C: 0.8478
  TRM1 (P16724) protein, numerical value of heatmap FIG. 6C: 0.8347
  UL4 (P17146) protein, numerical value of heatmap FIG. 6C: 1.514
  UL26 (P16762) protein, numerical value of heatmap FIG. 6C: 1.007
  UL32 (P08318) protein, numerical value of heatmap FIG. 6C: 0.8551
  UL34 (P16812) protein, numerical value of heatmap FIG. 6C: 0.6849
  UL35 (P16766) protein, numerical value of heatmap FIG. 6C: 0.6647
  UL38 (P16779) protein, numerical value of heatmap FIG. 6C: 0.8749
  UL44 (P16790) protein, numerical value of heatmap FIG. 6C: 0.9654
  UL48 (P16785) protein, numerical value of heatmap FIG. 6C: 0.7541
  UL54 (P08546) protein, numerical value of heatmap FIG. 6C: 1.256
  UL71 (P16823) protein, numerical value of heatmap FIG. 6C: 1.299
  UL78 (P16751) protein, numerical value of heatmap FIG. 6C: 0.7903
  UL84 (P16727) protein, numerical value of heatmap FIG. 6C: 0.7779
  UL95 (P16801) protein, numerical value of heatmap FIG. 6C: 0.5596
  UL96 (P16787) protein, numerical value of heatmap FIG. 6C: 0.7142
  UL97 (P16788) protein, numerical value of heatmap FIG. 6C: 0.8338
  UL98 (P16789) protein, numerical value of heatmap FIG. 6C: 1.012
  UL102 (P16827) protein, numerical value of heatmap FIG. 6C: 0.9332
  UL104 (P16735) protein, numerical value of heatmap FIG. 6C: 0.5729
  UL112/UL113 (P17151) protein, numerical value of heatmap FIG. 6C: 0.7439
  UL114 (P16769) protein, numerical value of heatmap FIG. 6C: 0.9743
  UL119/UL118 (P16739) protein, numerical value of heatmap FIG. 6C: 0.7206
  UL128 (P16837) protein, numerical value of heatmap FIG. 6C: 0.8111
  US8 (P09730) protein, numerical value of heatmap FIG. 6C: 0.7796
  US9 (P09729) protein, numerical value of heatmap FIG. 6C: 0.9079
  US12 (P09721) protein, numerical value of heatmap FIG. 6C: 0.6688
  US13 (P09720) protein, numerical value of heatmap FIG. 6C: 0.8741
  US14 (P09719) protein, numerical value of heatmap FIG. 6C: 0.6845
  US18 (P69334) protein, numerical value of heatmap FIG. 6C: 1.116
  US22 (P09722) protein, numerical value of heatmap FIG. 6C: 1.105
  US23 (P09701) protein, numerical value of heatmap FIG. 6C: 0.7852
  US24 (P09700) protein, numerical value of heatmap FIG. 6C: 0.7832
